This is an account of results in patent US7192763B2, “Streptomyces anulatus microorganism and a process for producing the substance GM-95” (Sosei Co., Ltd., priority 2001, dated 2007).

The structures appear in SMILES notation.

In data set [1] the test system is OVCAR-3 (human ovarian cancer). Kind of data set: Tumor cell growth inhibition (crystal violet), OVCAR-3. Conditions: 72 hours, read-out: Concentrations for 50% growth inhibition of various tumor cells (IC50). The format is cell-based. The procedure:
(§1) Tumor cells described in Table 5 were suspended in RPMI1640 medium containing 10% fetal calf serum, plated into culture plates (38 mm) at the density of in 2×10^3 cells each, and cultured in 37° C., 5% CO2 incubator overnight. Subsequently, experimental agents (the compound of the invention and 5-fluorouracil) diluted to various concentrations using RPMI1640 medium containing 10% fetal calf serum were added to each plate, and further cultured for 72 hours. After the cell culture was completed, those cells were fixed with 25% glutalaldehyde for 15 minutes and washed with water three times. After that, the cells were stained with 0.05% crystal violet diluted in 20% methanol aqueous solution, washed with water three times and then dried. The crystal violet were extracted with 100 μl of 0.05M sodium dihydrogenphosphate/ethanol (1/1(v/v)), their absorbance at 540 nm were determined by an automatic spectroscope. “IC50” was defined as the concentration required for a 50% reduction in growth compared to the control absorbance.

Data set [2] has as its system PC-3 (human prostate cancer). Put plainly: Tumor cell growth inhibition (crystal violet), PC-3. Conditions: 72 hours, read-out: Concentrations for 50% growth inhibition of various tumor cells (IC50). The format is cell-based. The procedure: as §1
Data set [3] relates to SKOV-3 (human ovarian cancer). Put plainly: Tumor cell growth inhibition (crystal violet), SKOV-3. The data set is classed as cell-based. To be noted: SK-OV-3, 72 hours, read-out: Concentrations for 50% growth inhibition of various tumor cells (IC50). As for the experimental part: as §1
In data set [4] the test system is MCF-7 (human breast cancer). Kind of data set: Tumor cell growth inhibition (crystal violet), MCF-7. The format is cell-based. Conditions: MCF7, 72 hours, read-out: Concentrations for 50% growth inhibition of various tumor cells (IC50). As for the experimental part:
as §1

In data set [5] the test system is ZR75-1 (human breast cancer). Kind of data set: Tumor cell growth inhibition (crystal violet), ZR75-1. The format is cell-based. Conditions: ZR-75-1, 72 hours, read-out: Concentrations for 50% growth inhibition of various tumor cells (IC50). The procedure:
as §1

Data set [6] has as its system PAN-3 (human pancreatic cancer). Put plainly: Tumor cell growth inhibition (crystal violet), PAN-3. The format is cell-based. Conditions: 72 hours, read-out: Concentrations for 50% growth inhibition of various tumor cells (IC50). The procedure:
as §1

In data set [7] the test system is KM12C-SM (human colon cancer). Kind of data set: Tumor cell growth inhibition (crystal violet), KM12C-SM. The format is cell-based. Conditions: 72 hours, read-out: Concentrations for 50% growth inhibition of various tumor cells (IC50). The procedure:
as §1

A further data set has as its system A375SM (human melanoma). Put plainly: Tumor cell growth inhibition (crystal violet), A375SM. The format is cell-based. Conditions: A375-SM, 72 hours, read-out: Concentrations for 50% growth inhibition of various tumor cells (IC50). As for the experimental part: as §1
In data set [8] the test system is TMK-1 (human gastric cancer). Put plainly: Tumor cell growth inhibition (crystal violet), TMK-1. Conditions: 72 hours, read-out: Concentrations for 50% growth inhibition of various tumor cells (IC50). The format is cell-based. The procedure:
as §1

Data set [9] concerns HT-29 (human colon cancer). Kind of data set: Tumor cell growth inhibition (crystal violet), HT-29. The data set is classed as cell-based. Conditions: 72 hours, read-out: Concentrations for 50% growth inhibition of various tumor cells (IC50). As for the experimental part: as §1
In data set [10] the test system is DLD-1 (human colon cancer). Kind of data set: Tumor cell growth inhibition (crystal violet), DLD-1. The data set is classed as cell-based. To be noted: 72 hours, read-out: Concentrations for 50% growth inhibition of various tumor cells (IC50). As for the experimental part: as §1
Data set [11] concerns Renca (mouse renal cancer). Kind of data set: Tumor cell growth inhibition (crystal violet), Renca. The data set is classed as cell-based. To be noted: 72 hours, read-out: Concentrations for 50% growth inhibition of various tumor cells (IC50). As for the experimental part:
as §1

A further data set deals with T1, telomerase (Homo sapiens, UniProt O14746).
T1 construct: using cell extracts containing telomerase according to the conventional manner; endogenous in cells
T1 sequence (O14746 whole entry): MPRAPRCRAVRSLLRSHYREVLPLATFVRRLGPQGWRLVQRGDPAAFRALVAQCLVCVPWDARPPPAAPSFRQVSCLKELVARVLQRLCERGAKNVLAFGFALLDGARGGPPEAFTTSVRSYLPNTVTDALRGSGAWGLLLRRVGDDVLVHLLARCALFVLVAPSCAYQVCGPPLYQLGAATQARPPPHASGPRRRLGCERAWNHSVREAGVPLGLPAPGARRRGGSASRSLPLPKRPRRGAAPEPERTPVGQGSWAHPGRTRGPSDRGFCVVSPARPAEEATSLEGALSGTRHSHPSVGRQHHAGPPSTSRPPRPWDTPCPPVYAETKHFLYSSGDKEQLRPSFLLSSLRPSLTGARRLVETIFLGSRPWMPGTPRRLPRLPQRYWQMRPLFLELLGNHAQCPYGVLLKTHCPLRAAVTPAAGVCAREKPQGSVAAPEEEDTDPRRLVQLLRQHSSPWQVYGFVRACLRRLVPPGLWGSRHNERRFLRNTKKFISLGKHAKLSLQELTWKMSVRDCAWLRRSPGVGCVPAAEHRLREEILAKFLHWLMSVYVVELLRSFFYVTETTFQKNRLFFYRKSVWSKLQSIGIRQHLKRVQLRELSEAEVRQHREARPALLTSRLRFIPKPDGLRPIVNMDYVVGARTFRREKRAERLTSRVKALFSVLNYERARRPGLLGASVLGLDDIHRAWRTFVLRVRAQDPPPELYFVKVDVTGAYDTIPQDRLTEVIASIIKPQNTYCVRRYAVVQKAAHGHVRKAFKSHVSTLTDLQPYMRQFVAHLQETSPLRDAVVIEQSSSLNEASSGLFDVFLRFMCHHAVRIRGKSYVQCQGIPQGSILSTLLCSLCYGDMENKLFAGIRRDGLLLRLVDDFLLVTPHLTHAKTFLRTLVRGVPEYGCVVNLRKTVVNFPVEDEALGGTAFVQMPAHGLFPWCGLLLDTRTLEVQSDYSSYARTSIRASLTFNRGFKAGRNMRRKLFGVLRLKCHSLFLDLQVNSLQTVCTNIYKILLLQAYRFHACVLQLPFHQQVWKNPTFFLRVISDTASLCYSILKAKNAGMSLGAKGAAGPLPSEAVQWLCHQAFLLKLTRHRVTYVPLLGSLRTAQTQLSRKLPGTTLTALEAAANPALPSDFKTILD
Kind of data set: Telomerase-inhibiting activity using cell extracts containing telomerase. The data set is classed as biochemical. To be noted: read-out: concentration for inhibiting telomerase activity by 50% (IC50) in cell extracts. The source says: The compound of the invention was subjected to the examination of telomerase-inhibiting activity using cell extracts containing telomerase according to the conventional manner, to provide the concentration for inhibiting telomerase activity by 50% (IC50) in cell extracts.

A short description of the next data set: Solubilities in solvents. The data set is classed as physicochemical. The source says: Insoluble in water and in acetone.
Soluble in a mixture of chloroform:methanol=1:1 • 8) Color of the substance: white yellowish powders • 9) Nuclear magnetic resonance spectrum

As for `O=c1[nH]cc(F)c(=O)[nH]1` [5-fluorouracil, reference compound], the IC50 in data set [1] is 0.37 µM; in data set [2], 5.7 µM; in data set [3], 7.84 µM; in data set [4], 1.12 µM; in [5], 3.63 µM; in data set [6], 8.82 µM. For the same molecule, the IC50 came out at 1.32 µM in data set [7]; 2.89 µM with A375SM (human melanoma); 0.33 µM in [8]; 2.1 µM in data set [9]; 5.5 µM in data set [10]; 0.58 µM in [11].

For `Cc1oc2nc1-c1nc(co1)-c1nc(co1)-c1nc(co1)-c1nc(co1)-c1nc(co1)C1=NC(CS1)c1nc-2c(C)o1` (stereo not shown) [Substance GM-95], the IC50 turned out to be 3.41 µM in data set [1]; 8.82 µM in data set [2]; 3.73 µM in data set [3]; 7.73 µM in data set [4]; 4.04 µM in data set [5]; 7.09 µM in [6]. Also, the IC50 in data set [7] was determined as 3.74 µM; in the data set on A375SM (human melanoma), 7.04 µM; in data set [8] it was 3.75 µM; in [9] it was 7.1 µM; in [10], 6.2 µM; in data set [11] it was 0.97 µM. Further, at telomerase, the IC50 was found to be 0.05 µM. For the same molecule, in “Solubilities in solvents” (acetone), the Solubility in acetone result was “Insoluble”. In “Solubilities in solvents” (chloroform:methanol=1:1), the “Solubility in a mixture of chloroform:methanol=1:1” value is recorded as “Soluble”. Besides, the Solubility in water entry in “Solubilities in solvents” (water) is reported as “Insoluble”.
